This test addresses T1, GPR50-EGFP receptor (Homo sapiens, UniProt Q13585).
T1 construct: signal peptide (SP) of the pCEP4-SP-EGFP vector (N); expressed in transfected cells
Nature of the test: Real-time measurement of energy transfer (FRET) between fluorescent ligand and GPR50-EGFP receptor on HEK 293 cells. The conditions noted are these: ligand at 500 nM; excitation 470 nm, fluorescence at 510 nm; FIG. 6. It counts as binding. An excerpt:
The binding of certain molecules was verified with the spectrofluorimeter (equipment previously described (see Example 1)).

Molecules are shown by their SMILES.

T1 sequence (Q13585 9-617 limits assumed): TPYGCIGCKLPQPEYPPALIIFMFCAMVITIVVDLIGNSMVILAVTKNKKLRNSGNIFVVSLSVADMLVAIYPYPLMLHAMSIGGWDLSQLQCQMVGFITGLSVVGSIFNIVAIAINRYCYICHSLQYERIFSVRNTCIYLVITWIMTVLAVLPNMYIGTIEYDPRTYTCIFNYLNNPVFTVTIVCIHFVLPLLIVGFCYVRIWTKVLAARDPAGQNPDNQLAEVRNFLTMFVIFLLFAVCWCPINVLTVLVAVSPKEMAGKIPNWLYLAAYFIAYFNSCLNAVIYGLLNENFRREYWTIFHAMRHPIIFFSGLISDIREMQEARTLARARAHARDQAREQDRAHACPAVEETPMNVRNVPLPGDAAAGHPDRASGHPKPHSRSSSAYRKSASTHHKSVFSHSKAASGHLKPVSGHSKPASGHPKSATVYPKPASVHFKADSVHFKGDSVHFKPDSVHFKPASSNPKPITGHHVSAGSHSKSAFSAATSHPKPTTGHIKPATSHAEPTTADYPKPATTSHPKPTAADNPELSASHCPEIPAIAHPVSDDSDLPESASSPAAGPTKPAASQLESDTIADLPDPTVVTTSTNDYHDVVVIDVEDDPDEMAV

`CCN(CCN(CC)C(=O)C(Cc1c[nH]c2ccccc12)NC(=O)C(CCCCNS(=O)(=O)c1ccc2c(c1)S(=O)(=O)OC21c2ccc(N(CC)CC)cc2Oc2cc(N(CC)CC)ccc21)NC(=O)C1=CCCN(C)C1)Cc1ccccc1` (stereo not shown) [FG 229 F4] gave an energy transfer of 2%.

The values are drawn from patent US7745413B2, “Collection of traceable compounds and uses thereof” (Centre National de la Recherche Scientifique (CNRS), priority 2004, dated 2010).
